Test results reported in patent EP0453621A1, “Polymer-modified drugs having enhanced biological and pharmacological activities” (W.R. Grace & Co.-Conn., priority 1990, dated 1991).
Ends that are not written are not given here. Peptide text beside a SMILES is read from it.

Assays:
[1] = Circulatory half-life of radioiodinated peptide or conjugate after tail vein injection; type: in vivo, C57B1/6 mice; conditions: i.v. tail vein
Protocol: The conjugate from Example XIII was passed over a disposable Sephadex G25 column (PD10 from Pharmacia, Inc.) to separate free from polymer-bound peptide. Confirmation of the purity of the conjugate was obtained by HPLC. About 45 µg of conjugate (based on peptide) were radiolabeled with 125-iodine using the well known chloramine-T procedure. Free 125-iodine was separated from radiolabeled conjugate using a PD10 column. Of the original 30 µCi of Na¹²⁵I used for the iodination, more than 23 µCi were incorporated into the conjugate.
Portions of the radiolabeled YRGDS-Prepolymer A conjugate from Example XIV were injected into the tail veins of C57B1/6 mice. As a control, YRGDS free peptide was radioiodinated by the procedure described in Example XIV and also injected. At various times blood was withdrawn from the animals and the amount of radioiodine remaining in the circulation determined using a gamma counter. A biphasic clearance curve (α:β) was obtained for both species. […] Thus by coupling the peptide to this polymer its clearance rate from the circulation is markedly extended.

B16 cell = assay: Inhibition of B16 cell spreading on a plate coated with fibronectin; conditions: the conjugate value is based on octapeptide, read-out: concentration for 50% inhibition of cell spreading
Protocol: The biological activity of the conjugate formed in Example XV was determined in an assay which measures inhibition of B16 cell spreading on a plate coated with fibronectin.

| IC50 (B16 cell) [µM] | Compound | t½α ([1]; first phase of biphasic clearance) [s] | label cleared in initial phase ([1]; in one minute, 125-iodine label) |
| --- | --- | --- | --- |
| – | N=C(N)NCCC[C@H](NC(=O)[C@@H](N)Cc1ccc(O)cc1)C(=O)NCC(=O)N[C@@H](CC(=O)O)C(=O)N[C@@H](CO)C(=O)O [YRGDS, tyr-arg-gly-asp-ser] (H-YRGDS-OH) | 30 | about 75% |
| 340 | GRGDSPAC-Prepolymer A conjugate: peptide gly-arg-gly-asp-ser-pro-ala-cys (SEQ. ID No. 3) conjugated with Prepolymer A (also: conjugated with Prepolymer A, site not given here) | – | – |
